Laboratory results as given in patent publication US10751396B2, “Early hyperlipidemia promotes endothelial activation via a caspase-1-sirtuin 1 pathway” (Temple University—Of The Commonwealth System of Higher …, priority 2015, dated 2020).
One block for each compound: values may come before it. Residues, ends and D or L forms follow the SMILES beside them. *: point of attachment. Cbz = O=C(OCc1ccccc1)*

Assays:
Type in all cases: cell-based, human
[1] = tested on: caspase-1; test: Caspase-1 activity assay (FAM-YVAD-FMK, flow cytometry) in HAECs; conditions: for oxLDL-induced caspase-1 activation with ROS inhibitors: Allopurinol 1 mmol/L, Apocynin 100 μM added 1 hour before oxLDL (100 μg/mL) 6 hours
Description: (§1) Active caspase-1 level was determined with APO LOGIX kit (Cell Tech., Mountain View, Calif.). The kit contains a carboxyfluorescein (FAM) [Excitation/Emission (nm):490/520]-labeled peptide fluoromethyl ketone (FMK) caspase-1 inhibitor (FAM-YVAD-FMK), which irreversibly binds to active caspase-1. All procedures were performed according to the manufacturer's instruction. Briefly, HAECs (≤passage 9) were cultured in 6-well plates and serum starved overnight to quiescent the cells before treatment. Next day, HAECs were treated with indicated stimuli for 6 hr. Cells were then digested by trypsin-EDTA and suspended at 1×10^6 cells/ml. 150 μl of cell suspension were incubated at 37° C. with 1× FAM-YVAD-FMK for 1 hour then washed with 1× washing buffer. Unfixed caspase-1 stained cells were then incubated with 7-aminoactinomycin D (7-AAD; cell membrane integrity marker) (BD Pharmingen, San Diego, Calif.) for no more than 10 min before analysis. The Calibur flow cytometer (BD Biosciences, San Jose, Calif.) was used to determine caspase-1 active (Caspase-1^+) and 7-AAD^+ cells. Data were analyzed with the FlowJo software (Tree Star, Ashland, Oreg.).
Active caspase-1 levels were determined with an APO LOGIX kit (Cell Technology, Mountain View, Calif.). The kit contained a carboxyfluorescein (FAM) (excitation/emission (nm): 490/520)-labeled peptide fluoromethyl ketone (FMK) caspase-1 inhibitor (FAM-YVAD-FMK), which irreversibly binds to active caspase-1. The procedures were performed according to the manufacturer's instructions. HAECs were cultured in 6-well dishes and serum-starved overnight to ensure quiescence of the cells before treatment. The next day, HAECs were treated with the indicated stimuli for 6 h. Cells were harvested and suspended at 1×10^6 cells/ml. The cell suspension (150 μl) was incubated in 37° C. with 1× FAM-YVAD-FMK for 1 h. After being washed with 1× washing buffer, the cells were fixed with fixative buffer and stored in 4° C. for up to 24 h. To determine the cell membrane integrity, the unfixed cells were stained with 7-AAD (Pharmingen) (0.25 μg/test) and incubated for no more than 10 min before analysis.
All flow cytometric data were analyzed by using the FlowJo software (Tree Star, Ashland, Oreg.). The uncompensated data were collected from the flow cytometer (either FACSCalibur flow cytometer or LSRII flow cytometer; BD Biosciences). Forward and side scatter gates were used to select live cell populations from clumps and debris. The positive gating was determined by its matched IgG control, and single staining was used to determine the compensation parameter. Different gates were established to analyze the data according to cell size as described in our figures.

[2] = tested on: HAECs; test: Caspase-1/7-AAD co-staining for pyroptosis in HAECs; conditions: HAECs, 6-hour stimulation; oxLDL 100 μg/mL, LPA 100 μM, LPC 15 μM
Description: FIG. 7, comprising FIG. 7A through FIG. 7D, depicts experimental results showing Oxidized low-density lipoprotein (oxLDL) and its components induce caspase-1 (casp-1) activation in human aortic endothelial cells (HAECs) via a reactive oxygen species (ROS)-mediated p-athway. FIG. 7A depicts pyroptotic cell death in HAECs caused by activation of casp-1 induced by oxLDL and its components. HAECs were cultured and treated with low-density lipoprotein (LDL; 100 μg/mL), oxLDL (100 μg/mL), oxLDL-derivatives lysophosphatidic acid (LPA, 100 μM), or lysophosphatidylcholine (LPC, 15 μM) as indicated for 6 hours. Casp-1 activity was determined by a commercial kit, and 7-aminoactinomycin D (7-AAD) fluorescence dye was used to determine the cell membrane integrity. Casp-1^+/7-AAD^+ cells were gated as pyrototic cells (Q3), casp-1^+ single positive cells (Q2) were gated as inflammatory cells, and 7-AAD^+ single positive cells (Q4) were gated as necrotic cells. FIG. 7B depicts ROS levels in pyroptotic cells. ROS levels were determined by dihydroethidium (DHE) fluorescence dye staining, and the mean fluorescence intensity (MFI) of DHE^+ cell fraction was determined. […] Allopurinol (1 mmol/L) and Apocynin (100 μM) were added 1 hour before oxLDL treatment. HAECs were then treated with oxLDL (100 μg/mL) for 6 hours and stained for caspase-1 activity. FIG. 7D depicts mRNA upregulation of inflammasome components, including NLRP1 (Nod-like receptor protein 1), NLRP3 (Nod-like receptor 3), PYCARD (or ASC, inflammasome adaptor apoptosis-associated speck-like protein containing a CARD), caspase-1, and IL-1β (interleukin-1β) in HAECs treated with oxLDL. Data are expressed as mean±SE. *P<0.05, changes with statistical significance.
as §1
Active caspase-1 levels were determined with an APO LOGIX kit (Cell Technology, Mountain View, Calif.). The kit contained a carboxyfluorescein (FAM) (excitation/emission (nm): 490/520)-labeled peptide fluoromethyl ketone (FMK) caspase-1 inhibitor (FAM-YVAD-FMK), which irreversibly binds to active caspase-1. The procedures were performed according to the manufacturer's instructions. HAECs were cultured in 6-well dishes and serum-starved overnight to ensure quiescence of the cells before treatment. The next day, HAECs were treated with the indicated stimuli for 6 h. Cells were harvested and suspended at 1×10^6 cells/ml. […]

[3] = tested on: Sirt1; test: Sirt1 cleavage in oxLDL-treated HAECs by Western blot; conditions: agent added 1 hour before oxLDL (100 μg/mL, 24 hours)
Excerpt: FIG. 8, comprising FIG. 8A through FIG. 8C, depicts experimental results showing hyperlipidemia/dyslipidemia decreases sirtuin 1 (Sirt1) expression in ApoE^−/− mouse aorta and induces Sirt1 cleavage in human aortic endothelial cells (ECs) through caspase-1 (casp-1) activation. FIG. 8A depicts Casp-1 deficiency results in Sirt1 accumulation in mouse aorta in ApoE^−/−/Casp-1^−/− mice. ApoE^−/− mice and ApoE^−/−/Casp-1^−/− mice were fed with a high fat (HF) diet for 3 weeks. Mouse aortic tissues were collected for uncleaved Sirt1 protein expression analysis by Western blot with the specific antibody (left panel). The quantification of Sirt1 expression in the Western blot was presented after normalized with the expression of β-actin in the same sample (right panel). FIG. 8B depicts oxidized low-density lipoprotein (OxLDL) induces Sirt1 cleavage in human aortic endothelial cells (HAECs). HAECs were cultured and treated with oxLDL (100 μg/mL) for 24 hours. […] The protein lysates were collected, and cleaved-Sirt1 expression was determined by Western blot with anti-Sirt1 antibody. The relative changes of Sirt1 expression normalized by β-actin (ratios) were calculated based on the ratios of Sirt1 expression levels in treated samples over that in nontreated samples. […]

[4] = tested on: alpha actin and calponin RNA transcripts in HAVSMCs; test: Contractile marker RNA in HAVSMCs exposed to uremic serum (quantitative RT-PCR); conditions: HAVSMC, 10% pooled CKD sera 24 hours, compared to non-treated controls
Description: FIG. 29 depicts experimental results showing the exposure of human aortic vascular smooth muscle cells (HAVSMCs) to uremic serum decreases the expression of contractile marker RNA transcripts, which is reversed by the inhibition of caspase-1. HAVSMCs were grown to sub-confluence and were serum starved for 24 hours and exposed to 10% pooled uremic sera from CKD patients (CKD PS) with and without Caspase-1 Inhibitor (Casp1 inh) for another 24 hours. The RNA was extracted, was reverse transcribed into cDNA, and the expression of smooth muscle contractile marker RNA transcripts (alpha actin and calponin) was measured by quantitative RT-PCR using the Applied Biosystems 7500, Taqman primers and probes. The relative quantification of gene RNA expression is presented after being normalized with the expression of a house-keeping gene. *P value<0.005.
Blood samples were obtained from 6 healthy donors with normal kidney function and 20 patients with end stage renal disease who were on hemodialysis. […]
Total RNA from cultured cells was extracted using the RNeasy kit (Qiagen, Valencia, Calif.), and cDNA was synthesized with the VILO first-strand synthesis system (Invitrogen, Grand Island, N.Y.). […] Relative gene expression levels were calculated after normalization with the internal control eukaryotic 18S gene using the 2^−deltadeltaCt method, where Ct is the threshold value.

- caspase-1 activation after VEGFR-2 inhibition ([1]; HAECs pretreated with SU1498, then LPC (30 μM) 6 h after overnight serum starvation): increases caspase-1 activation
Compound: CC(C)c1cc(/C=C(\C#N)C(=O)NCCCc2ccccc2)cc(C(C)C)c1O [SU1498]

- caspase-1 activation in larger size of HAECs ([1]; 6 h, oxLDL (100 μM), LPA (30 μM), LPC (30 μM), large FSC gate): 54.4%
- caspase-1 activation in smaller size of HAECs ([1]; 6 h, oxLDL (100 μM), LPA (30 μM), LPC (30 μM), small FSC gate): 25.2%
Compound: mono-acylsn-glycero-3-phosphate [LPA]
- induction of inflammation, pyroptosis and necrosis (caspase-1/7-AAD gating) [2]: induced inflammation, inflammatory cell death (pyroptosis), and necrosis

Compound: RQIKIWFQNRRMKWKKGYRDNLLFGAEIITNGFHSC (N-terminal protein transduction sequence; listed as Homo sapiens) [NC-Sirt1]
- oxLDL-induced Sirt1 cleavage with inhibitor [3]: dose-dependently decreases

Compound: CC(C)C[C@@H](C=O)NC(=O)[C@H](CC(C)C)NC(=O)[C@H](CC(C)C)NC(=O)OCc1ccccc1 [MG-132] (Cbz-Leu-Leu-Leu-aldehyde)
- oxLDL-induced Sirt1 cleavage with inhibitor [3]: inhibited

Compound: Oc1ncnc2[nH]ncc12 [Allopurinol]
- oxLDL-induced caspase-1 activation with ROS inhibitors [1]: attenuation of oxLDL-induced caspase-1 activation

Compound: COC(=O)C[C@H](NC(=O)[C@H](C)NC(=O)[C@@H](NC(=O)[C@H](Cc1ccc(O)cc1)NC(=O)OCc1ccccc1)C(C)C)C(=O)CF [Z-YVAD-FMK]
- relative quantification of alpha-actin RNA [4]: 0.588
- relative quantification of calponin RNA [4]: 0.601

Compound: COc1cc(C(C)=O)ccc1O [Apocynin]
- oxLDL-induced caspase-1 activation with ROS inhibitors [1]: attenuation of oxLDL-induced caspase-1 activation
